Measurements: PubChem BioAssay (NCI)
Where “and” joins values, the source holds several entries; their conditions need not be identical. Identical values can stand only once.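 Exposure lasted 48 hours, with cells grown in 96-well plates and compounds tested at five concentrations. GI50 is the concentration that inhibits growth by half. TGI: total growth inhibition.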

Legend:
Test in all cases: NCI anticancer screen, dose series, 48 h
UACC-257 melanoma = test system: UACC-257 melanoma
OVCAR-8 ovarian = test system: OVCAR-8 ovarian
SK-OV-3 ovarian = test system: SK-OV-3 ovarian
HCT-15 colon = test system: HCT-15 colon
BT-549 breast = test system: BT-549 breast
OVCAR-3 ovarian = test system: OVCAR-3 ovarian
COLO 205 colon = test system: COLO 205 colon
LOX IMVI melanoma = test system: LOX IMVI melanoma
SF-268 CNS = test system: SF-268 CNS
KM12 colon = test system: KM12 colon
ACHN renal = test system: ACHN renal
RXF 393 renal = test system: RXF 393 renal
SNB-75 CNS = test system: SNB-75 CNS
SW-620 colon = test system: SW-620 colon
OVCAR-5 ovarian = test system: OVCAR-5 ovarian
IGROV1 ovarian = test system: IGROV1 ovarian
NCI/ADR-RES ovarian = test system: NCI/ADR-RES ovarian
SNB-19 CNS = test system: SNB-19 CNS
SF-539 CNS = test system: SF-539 CNS
MDA-MB-231 breast = test system: MDA-MB-231 breast
CAKI-1 renal = test system: CAKI-1 renal
UO-31 renal = test system: UO-31 renal
T-47D breast = test system: T-47D breast
HOP-62 NSCLC = test system: HOP-62 NSCLC
HOP-92 NSCLC = test system: HOP-92 NSCLC
MOLT-4 leukemia = test system: MOLT-4 leukemia
HL-60(TB) leukemia = test system: HL-60(TB) leukemia
A498 renal = test system: A498 renal
SN12C renal = test system: SN12C renal
NCI-H460 lung = test system: NCI-H460 lung
NCI-H23 lung = test system: NCI-H23 lung
U251 CNS = test system: U251 CNS
HT29 colon = test system: HT29 colon
NCI-H522 lung = test system: NCI-H522 lung
PC-3 prostate = test system: PC-3 prostate
SK-MEL-2 melanoma = test system: SK-MEL-2 melanoma
SF-295 CNS = test system: SF-295 CNS
SK-MEL-28 melanoma = test system: SK-MEL-28 melanoma
RPMI-8226 leukemia = test system: RPMI-8226 leukemia
TK-10 renal = test system: TK-10 renal
K-562 leukemia = test system: K-562 leukemia
SK-MEL-5 melanoma = test system: SK-MEL-5 melanoma
DU-145 prostate = test system: DU-145 prostate
A549 NSCLC = test system: A549 NSCLC
M14 melanoma = test system: M14 melanoma
EKVX NSCLC = test system: EKVX NSCLC
MCF7 breast = test system: MCF7 breast
NCI-H226 lung = test system: NCI-H226 lung
OVCAR-4 ovarian = test system: OVCAR-4 ovarian
HCT-116 colon = test system: HCT-116 colon
MDA-N = test system: MDA-N
UACC-62 melanoma = test system: UACC-62 melanoma
786-0 renal = test system: 786-0 renal
MDA-MB-435 = test system: MDA-MB-435
HCC-2998 colon = test system: HCC-2998 colon
CCRF-CEM leukemia = test system: CCRF-CEM leukemia
MALME-3M melanoma = test system: MALME-3M melanoma

NN/C(=N\S(=O)(=O)c1ccc(-c2ccccn2)s1)Nc1ccc(Cl)cc1
TGI (UACC-257 melanoma): > 100 µM
TGI (OVCAR-8 ovarian): > 100 µM
TGI (SK-OV-3 ovarian): > 100 µM
TGI (HCT-15 colon): > 100 µM
TGI (BT-549 breast): > 100 µM
TGI (OVCAR-3 ovarian): > 100 µM
TGI (COLO 205 colon): > 100 µM
TGI (LOX IMVI melanoma): > 100 µM
TGI (SF-268 CNS): 84.2 µM
TGI (KM12 colon): > 100 µM
TGI (ACHN renal): > 100 µM
TGI (RXF 393 renal): 94 µM
TGI (SNB-75 CNS): 69.2 µM
TGI (SW-620 colon): > 100 µM
TGI (OVCAR-5 ovarian): > 100 µM
TGI (IGROV1 ovarian): > 100 µM
TGI (NCI/ADR-RES ovarian): > 100 µM
TGI (SNB-19 CNS): > 100 µM
TGI (SF-539 CNS): > 100 µM
TGI (MDA-MB-231 breast): > 100 µM
TGI (CAKI-1 renal): > 100 µM
TGI (UO-31 renal): > 100 µM
TGI (T-47D breast): > 100 µM
TGI (HOP-62 NSCLC): > 100 µM
TGI (HOP-92 NSCLC): > 100 µM
TGI (MOLT-4 leukemia): > 100 µM
TGI (HL-60(TB) leukemia): > 100 µM
TGI (A498 renal): > 100 µM
TGI (SN12C renal): > 100 µM
TGI (NCI-H460 lung): > 100 µM
TGI (NCI-H23 lung): > 100 µM
TGI (U251 CNS): > 100 µM
TGI (HT29 colon): > 100 µM
TGI (NCI-H522 lung): 57.1 µM
TGI (PC-3 prostate): > 100 µM
TGI (SK-MEL-2 melanoma): > 100 µM
TGI (SF-295 CNS): > 100 µM
TGI (SK-MEL-28 melanoma): > 100 µM
TGI (RPMI-8226 leukemia): > 100 µM
TGI (TK-10 renal): > 100 µM
TGI (K-562 leukemia): > 100 µM
TGI (SK-MEL-5 melanoma): > 100 µM
TGI (DU-145 prostate): > 100 µM
TGI (A549 NSCLC): > 100 µM
TGI (M14 melanoma): > 100 µM
TGI (EKVX NSCLC): > 100 µM
TGI (MCF7 breast): > 100 µM
TGI (NCI-H226 lung): > 100 µM
TGI (OVCAR-4 ovarian): > 100 µM
TGI (HCT-116 colon): > 100 µM
TGI (MDA-N): > 100 µM
TGI (UACC-62 melanoma): > 100 µM
TGI (786-0 renal): > 100 µM

CCCCCCCCCCCC[C@H](O)[C@H]1CC[C@H]([C@H](O)CCCC[C@H](O)CCCCC[C@@H](O)CC2=C[C@H](C)OC2=O)O1
GI50 (UACC-257 melanoma): 1.69 µM
TGI (UACC-257 melanoma): 5.81 µM and 19 µM
GI50 (HCT-15 colon): 18.7 µM
TGI (HCT-15 colon): 57.8 µM
GI50 (BT-549 breast): 12.7 µM
GI50 (OVCAR-3 ovarian): 17.2 µM
TGI (OVCAR-3 ovarian): 9.34 µM and 32.4 µM
GI50 (COLO 205 colon): 16.4 µM
TGI (COLO 205 colon): 32.7 µM
GI50 (LOX IMVI melanoma): 2.19 µM
TGI (LOX IMVI melanoma): 3.72 µM and 22.9 µM
GI50 (SF-268 CNS): 17 µM
TGI (SF-268 CNS): 40.3 µM
GI50 (KM12 colon): 16.9 µM
TGI (KM12 colon): 35.9 µM
GI50 (ACHN renal): 11.2 µM
TGI (ACHN renal): 5.5 µM and 23.8 µM
TGI (RXF 393 renal): 33.2 µM
GI50 (SNB-75 CNS): 16.3 µM
TGI (SNB-75 CNS): 31.7 µM
GI50 (SW-620 colon): 21.6 µM
TGI (SW-620 colon): 64 µM
TGI (OVCAR-5 ovarian): 31.7 µM
GI50 (NCI/ADR-RES ovarian): 14.5 µM
TGI (NCI/ADR-RES ovarian): 34.4 µM
GI50 (SNB-19 CNS): 13.3 µM
TGI (SNB-19 CNS): 27.7 µM
TGI (SF-539 CNS): 29.5 µM
GI50 (MDA-MB-231 breast): 16.2 µM
TGI (MDA-MB-231 breast): 40.9 µM
GI50 (MDA-MB-435): 15.6 µM
TGI (MDA-MB-435): 8.48 µM and 38.8 µM
GI50 (CAKI-1 renal): 17.5 µM
TGI (CAKI-1 renal): 36.4 µM
GI50 (UO-31 renal): 14.6 µM
TGI (UO-31 renal): 7.44 µM and 28.8 µM
GI50 (T-47D breast): 2.82 µM
TGI (T-47D breast): 21.6 µM
GI50 (HOP-62 NSCLC): 17.5 µM
TGI (HOP-62 NSCLC): 31.8 µM
GI50 (HOP-92 NSCLC): 23.7 µM
TGI (HOP-92 NSCLC): 52.9 µM
GI50 (MOLT-4 leukemia): 3.67 µM
TGI (MOLT-4 leukemia): 24.9 µM
TGI (HL-60(TB) leukemia): 8.05 µM
TGI (HCC-2998 colon): 33.9 µM
GI50 (SN12C renal): 17.8 µM
TGI (SN12C renal): 38.8 µM
GI50 (NCI-H460 lung): 0.986 µM
TGI (NCI-H460 lung): 22.9 µM
GI50 (NCI-H23 lung): 0.46 µM
TGI (NCI-H23 lung): 22.2 µM
TGI (U251 CNS): > 100 µM
TGI (NCI-H522 lung): 19.7 µM
GI50 (PC-3 prostate): 16.2 µM
TGI (PC-3 prostate): 29.8 µM
GI50 (SK-MEL-2 melanoma): 19.9 µM
TGI (SK-MEL-2 melanoma): 36.2 µM
GI50 (SF-295 CNS): 3 µM
TGI (SF-295 CNS): 20.1 µM
GI50 (SK-MEL-28 melanoma): 20 µM
TGI (SK-MEL-28 melanoma): 41.2 µM
GI50 (CCRF-CEM leukemia): 5.62 µM
TGI (CCRF-CEM leukemia): 27.3 µM
GI50 (TK-10 renal): 13.1 µM
TGI (TK-10 renal): 26.8 µM
GI50 (K-562 leukemia): 0.0621 µM
TGI (K-562 leukemia): 26.9 µM
GI50 (SK-MEL-5 melanoma): 0.0602 µM
TGI (SK-MEL-5 melanoma): 15.6 µM
GI50 (A549 NSCLC): 12.4 µM
TGI (A549 NSCLC): 28.5 µM
GI50 (M14 melanoma): 14.2 µM
TGI (M14 melanoma): 27.4 µM
GI50 (EKVX NSCLC): 2.5 µM
TGI (EKVX NSCLC): 10.9 µM
GI50 (MCF7 breast): 10.9 µM
TGI (MCF7 breast): 25.4 µM
TGI (MALME-3M melanoma): 32.2 µM
GI50 (NCI-H226 lung): 17.4 µM
TGI (NCI-H226 lung): 43.3 µM
TGI (OVCAR-4 ovarian): 36.1 µM
GI50 (HCT-116 colon): 0.636 µM
TGI (HCT-116 colon): 22.7 µM
GI50 (MDA-N): 14.3 µM
TGI (MDA-N): 30.5 µM
TGI (UACC-62 melanoma): 7.17 µM
GI50 (786-0 renal): 18.5 µM
TGI (786-0 renal): 34.5 µM
